Laboratory results published in US20100298282A1, “Treatment of Ocular Conditions and the Side-Effects of Glucocorticoids” (priority 2006, published 2010).
Like-named read-outs stand apart in the source and are kept apart here. Marks after values point to notes of the source that are not given here.

How the values were obtained:
[1] = target: T1, human recombinant receptor (PR) (Homo sapiens, UniProt P06401); experiment: PR binding, radioligand binding with [3H]-progesterone
T1 sequence (P06401 1-933): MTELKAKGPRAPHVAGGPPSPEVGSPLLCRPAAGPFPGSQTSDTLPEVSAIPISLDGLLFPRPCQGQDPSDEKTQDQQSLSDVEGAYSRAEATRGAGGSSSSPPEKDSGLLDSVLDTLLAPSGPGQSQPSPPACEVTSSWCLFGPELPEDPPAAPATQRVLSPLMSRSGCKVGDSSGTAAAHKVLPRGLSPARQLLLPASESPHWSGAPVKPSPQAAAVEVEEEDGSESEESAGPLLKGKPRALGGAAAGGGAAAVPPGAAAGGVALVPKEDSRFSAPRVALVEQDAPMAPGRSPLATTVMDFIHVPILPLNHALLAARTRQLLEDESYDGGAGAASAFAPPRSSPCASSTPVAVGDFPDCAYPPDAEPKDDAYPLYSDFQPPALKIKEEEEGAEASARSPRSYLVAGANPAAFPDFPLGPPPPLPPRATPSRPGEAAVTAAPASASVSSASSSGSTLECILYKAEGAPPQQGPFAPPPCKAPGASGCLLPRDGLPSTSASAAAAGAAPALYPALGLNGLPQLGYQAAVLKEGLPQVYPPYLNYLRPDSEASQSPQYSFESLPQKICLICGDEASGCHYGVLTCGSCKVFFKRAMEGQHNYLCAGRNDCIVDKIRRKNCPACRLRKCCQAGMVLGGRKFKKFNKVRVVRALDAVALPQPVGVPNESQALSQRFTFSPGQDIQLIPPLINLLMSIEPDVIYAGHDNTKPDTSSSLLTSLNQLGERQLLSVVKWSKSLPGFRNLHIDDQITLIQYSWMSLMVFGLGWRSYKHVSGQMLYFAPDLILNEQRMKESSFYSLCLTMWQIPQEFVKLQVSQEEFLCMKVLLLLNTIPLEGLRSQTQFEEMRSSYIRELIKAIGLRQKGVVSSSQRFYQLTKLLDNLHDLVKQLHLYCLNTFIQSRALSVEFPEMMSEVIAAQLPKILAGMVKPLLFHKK
Protocol: (§1) The methods are described by Gill et al. and Morgan et al., supra.
PR binding was assessed using the same methods, using the human recombinant receptor and [^3H]-progesterone. IC50 values were determined from six-point concentration/inhibition curves performed in duplicate at semi-log concentrations.

[2] = target: T2, human recombinant receptor (GR) (Homo sapiens, UniProt P04150); experiment: GR binding, glucocorticoid radioligand binding with [3H]-dexamethasone
T2 sequence (P04150 1-777): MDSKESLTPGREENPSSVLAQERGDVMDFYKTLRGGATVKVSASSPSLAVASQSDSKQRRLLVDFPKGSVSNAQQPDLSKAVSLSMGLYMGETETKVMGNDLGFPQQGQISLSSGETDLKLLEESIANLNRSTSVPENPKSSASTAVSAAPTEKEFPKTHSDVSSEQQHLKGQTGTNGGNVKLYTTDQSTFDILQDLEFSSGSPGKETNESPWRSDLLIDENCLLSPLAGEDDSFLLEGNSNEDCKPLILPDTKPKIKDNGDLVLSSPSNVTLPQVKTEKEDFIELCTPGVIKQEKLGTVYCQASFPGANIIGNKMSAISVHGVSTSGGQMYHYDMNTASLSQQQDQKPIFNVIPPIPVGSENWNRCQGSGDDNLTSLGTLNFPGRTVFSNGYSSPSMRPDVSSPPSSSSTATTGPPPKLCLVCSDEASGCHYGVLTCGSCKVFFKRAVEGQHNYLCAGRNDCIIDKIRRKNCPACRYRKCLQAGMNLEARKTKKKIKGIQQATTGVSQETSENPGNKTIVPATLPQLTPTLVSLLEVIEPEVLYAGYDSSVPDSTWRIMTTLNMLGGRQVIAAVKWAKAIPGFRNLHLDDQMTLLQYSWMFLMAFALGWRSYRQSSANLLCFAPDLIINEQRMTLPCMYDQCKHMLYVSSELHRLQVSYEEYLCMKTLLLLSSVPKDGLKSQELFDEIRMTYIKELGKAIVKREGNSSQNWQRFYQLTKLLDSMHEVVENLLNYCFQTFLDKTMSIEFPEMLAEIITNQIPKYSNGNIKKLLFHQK
From the text: as §1

[3] = target: T3, native glucocorticoid receptors (Homo sapiens, UniProt P04150); experiment: Glucocorticoid reporter gene assay (GRE-luciferase) in SW1353 cells, GR antagonist activity; format: cell-based; conditions: for Ki: Ki=IC50/(1+[Dex]/EC50Dex); for IC50: 24 hours, in the presence of 50 nM dexamethasone
T3 construct: cell line that expresses native glucocorticoid receptors; endogenous in cells; host or cells: SW1353 human chondrosarcoma cells, stably transfected only with a GRE-luciferase reporter
T3 sequence (P04150 1-777): T2 sequence (P04150 1-777)
From the text: Depending on the intended use and route of administration, various criteria may be used to determine a GR antagonist for use in the invention. […] The GR antagonism preferably negates more than 30%, more preferably more than 50%, and most preferably more than 90%, of the GR agonism at sites distant from the site of administration of the corticosteroid, and negates less than 70%, more preferably less than 50%, and most preferably less than 10%, of the GR agonism at the site of intended action of the corticosteroid.
The glucocorticoid reporter gene assay was performed in SW1353 human chondrosarcoma cell line that expresses native glucocorticoid receptors (Morgan et al., supra), stably transfected with a vector containing a glucocorticoid-responsive element (GRE) linked to the firefly luciferase gene. […] Compounds were tested on two separate occasions to determine inter-assay variability.
Ki values were calculated from the equation
Ki=IC50/(1+[Dex]/EC50^Dex)

[4] = tested on: Intraocular pressure (IOP); experiment: Intraocular pressure after a single eye drop in New Zealand White rabbits; format: in vivo; conditions: rabbit; for IOP at 3 hours, Mean (SEM) / IOP at 4 hours, Mean (SEM): 0.3% single eye drop; for decrease in IOP compared to vehicle-treated group: at 3 and 4 hours
Protocol: Healthy female New Zealand White rabbits were tested in a randomized, blind, controlled study, with 6 animals per treatment group. They were acclimatized for 7 days prior to the start of the study. Intraocular pressure (IOP) was measured in both eyes pre-treatment and at intervals after instillation of a single eye drop of vehicle or test compound into the left eye of each animal, administered from a dropper bottle. The volume of each drop was approximately 60-65 microlitres. The vehicle was a sterile solution of 15% hydroxpropyl-β-cyclodextrin, 5% polyethylene glycol, 0.5% hydroxypropylmethylcellulose in deionised water, adjusted to pH 7 with HCl or NaOH as appropriate. […] IOP was measured using a Mentor Tonopen XL (Lim et al., 2005, Invest Opthalmol Vis Sci 46 2419-23), after topical administration of 0.5% proxymetacaine HCl local anaesthetic. Ten recordings per eye per time point were taken and a mean reading documented.

intraocular pressure = conditions: rabbit, cited from earlier work
rat skin = conditions: given subcutaneously or topically to the skin; cited from earlier work
[5] = target: GR receptors in the iris-ciliary body (Oryctolagus cuniculus, UniProt P59667); conditions: rabbit eye; cited from earlier work
[6] = read-out: GR Antagonist Mean Ki

Sequence of GR receptors in the iris-ciliary body (P59667 whole entry): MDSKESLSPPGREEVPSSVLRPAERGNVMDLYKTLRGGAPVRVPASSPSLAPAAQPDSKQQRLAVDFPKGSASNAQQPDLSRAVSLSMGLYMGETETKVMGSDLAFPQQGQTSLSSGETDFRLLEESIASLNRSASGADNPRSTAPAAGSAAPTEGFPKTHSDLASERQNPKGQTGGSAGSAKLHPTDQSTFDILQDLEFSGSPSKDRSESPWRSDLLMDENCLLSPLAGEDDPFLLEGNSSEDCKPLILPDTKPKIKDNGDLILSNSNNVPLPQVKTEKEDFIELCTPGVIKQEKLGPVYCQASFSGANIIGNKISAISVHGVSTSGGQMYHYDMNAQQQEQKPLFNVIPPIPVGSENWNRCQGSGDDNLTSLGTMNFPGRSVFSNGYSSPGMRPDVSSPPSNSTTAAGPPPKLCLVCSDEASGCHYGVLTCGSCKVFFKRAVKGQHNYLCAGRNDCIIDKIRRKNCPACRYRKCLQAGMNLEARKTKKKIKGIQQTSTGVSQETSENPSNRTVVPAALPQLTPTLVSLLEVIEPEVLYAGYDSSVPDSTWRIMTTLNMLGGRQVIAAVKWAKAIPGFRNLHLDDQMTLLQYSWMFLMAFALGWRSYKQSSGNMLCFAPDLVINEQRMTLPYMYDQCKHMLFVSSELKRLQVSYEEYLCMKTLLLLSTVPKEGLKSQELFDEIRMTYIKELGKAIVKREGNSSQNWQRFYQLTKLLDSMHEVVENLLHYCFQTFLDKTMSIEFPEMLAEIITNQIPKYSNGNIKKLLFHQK

Row | Compound | IC50 [1] | Ki [1] | IC50 [2] | Ki [2] | Ki ([3]; GR Antagonist Mean Ki) | IC50 [3] | Ki [3, 6] | IOP at 3 hours, Mean (SEM) [4] | IOP at 4 hours, Mean (SEM) [4] | decrease in IOP compared to vehicle-treated group [4] | effect on intraocular pressure, topical (intraocular pressure; 1% suspension eyedrops topically, after 4-13 weeks of treatment) | effect on intraocular pressure, subconjunctival injection (intraocular pressure; 1% suspension injected subconjunctivally) | effect on steroid-induced skin atrophy (rat skin) | binding to GR receptors in iris-ciliary body [5]
1 | COc1cccc2c1-c1ccc(NS(C)(=O)=O)cc1C(c1cccc(C)c1)O2 (stereo not drawn) [Compound A-362947, N-[1-methoxy-6-(3-methylphenyl)-6H-benzo{c}chromen-8-yl]methanesulfonamide] | 1330 nM | 531 nM | 5.64 nM | 2.82 nM | 50.4 nM | – | – | – | – | – | – | – | – | –
2 | CN(C)c1ccc([C@H]2C[C@@]3(C)[C@@H](CC[C@]3(O)C#CCO)[C@@H]3CCC4=CC(=O)CCC4=C32)cc1 [RU42698] | 10.6 nM | 4.24 nM | 1.74 nM | 0.87 nM | – | 80.9 nM | 12.6 nM | 11.83 (0.40) * mm Hg | 11.83 (0.31) * mm Hg | induced a significant decrease | – | – | – | –
3 | CC#C[C@]1(O)CC[C@H]2[C@@H]3CCC4=CC(=O)CCC4=C3[C@@H](c3ccc(NC)cc3)C[C@@]21C [RU42633] | 4.46 nM | 1.79 nM | 1.12 nM | 0.56 nM | – | 17.3 nM | 2.55 nM | – | – | – | – | – | – | –
4 | CC#C[C@]1(O)CC[C@H]2[C@@H]3CCC4=CC(=O)CCC4=C3[C@@H](c3ccc(N)cc3)C[C@@]21C [RU42848] | 15.9 nM | 6.37 nM | 1.36 nM | 0.68 nM | – | 58.3 nM | 8.6 nM | 11.67 (0.49) * mm Hg | 11.50 (0.34) * mm Hg | induced a significant decrease in IOP | – | – | – | –
5 | CC#C[C@]1(O)CC[C@H]2[C@@H]3CCC4=CC(=O)CCC4=C3[C@@H](c3ccc(N(C)C)cc3)C[C@@]21C [RU486, Mifepristone] | – | – | – | – | – | – | – | 11.67 (1.23) mm Hg | 11.83 (1.19) mm Hg | did not induce a statistically significant decrease in IOP | falls in intraocular pressure have been noted | falls in intraocular pressure were reported | blocked atrophogenic effect of the topical steroid without affecting its anti-inflammatory effect | specifically blocks the binding of the GR agonist triamcinolone
